{
  "source": "patent US20240269292A1",
  "key": {"carboxyesterase": {"system": "carboxyesterase", "assay": "In vitro cleavage of the prodrug ester bond by carboxyesterase (HPLC)", "format": "in vitro ADME", "settings": "37° C. in vitro, carboxyesterase 0.1 μg/mL", "experimental": "One example of an EY005-prodrug includes EY005-stearyl (FIG. 16A), wherein EY005 is linked via ester bond to stearyl alcohol, one member from the group of long-chain saturated fatty alcohols. On cleavage of the ester bond, the prodrug EY005-stearyl releases the EY005 MTT. […] Upon addition of EY005-stearyl prodrug to phosphate-buffered saline solution at 37° C. without esterase, the ester bond of the EY005-stearyl prodrug cleaves more slowly (˜36 hours) by hydrolysis (FIGS. 17A and 17C).\nEY005-stearyl was incubated at 37° C. in vitro with carboxyesterase (0.1 μg/mL), to simulate the ocular physiologic environment and the type of esterase that is readily abundant within the vitreous. […] Upon addition of EY005-stearyl prodrug to phosphate-buffered saline solution at 37° C. without esterase, the ester bond of the EY005-stearyl prodrug cleaves more slowly by hydrolysis (FIG. 17C).\nFIG. 18 illustrates theoretical data from an in vitro esterase assay showing rapid ester cleavage of two different EY005 prodrugs upon exposure to the esterase.\nOne specific example of EY005-prodrug includes EY005-stearyl (depicted in FIG. 16A), wherein EY005 is linked via ester bond to stearyl alcohol, one member from the group of long-chain saturated fatty alcohols. On cleavage of the ester bond, the prodrug EY005-stearyl releases the EY005 MTT. […]"}, "[1]": {"system": "retinal pigment epithelium (RPE) cells", "assay": "Actin cytoskeleton disorganization (phalloidin) in HQ-exposed RPE cells", "format": "cell-based", "settings": "5 μM", "experimental": "(§1) Cells are then treated with drug (or control phosphate-buffered saline (PBS) solution) and assayed for effects on mitochondrial dysfunction and other cellular changes.\n(§2) Mitochondrial dysfunction can be modeled using in vitro cell culture systems relevant to retinal disease. In one such system, retinal pigment epithelium (RPE) cells are cultured to post-confluence to establish a differentiated cell monolayer and are then assayed for mitochondrial dysfunction and effect of drugs for treatment of mitochondrial dysfunction (FIG. 5). In this model, mitochondrial dysfunction is induced by two exposures to nonlethal doses of hydroquinone (HQ) at day −3 and day 0. Hydroquinone (HQ), a well-known environmental toxicant ubiquitously present in Western lifestyle, is a biochemical inducer of mitochondrial dysfunction. […] Cells are then treated with a drug of interest (mitochondrial targeted peptide drug or a prodrug thereof) or control (phosphate-buffered saline (PBS) solution and assayed for effects on mitochondrial dysfunction, as measured by microscopy of flavoprotein autofluorescence (a measure of mitochondrial electron transport chain complex II decompensation) (FIG. 6)."}, "[2]": {"assay": "Hydrophobicity and aqueous solubility", "format": "physicochemical"}, "[3]": {"assay": "Complexation of EY005-stearyl with complexation agent in methyl laurate, HPLC of pulled-down particulates and medium", "format": "physicochemical", "settings": "1 hour", "experimental": "As described herein, formation of drug-complex particulates in which the complexation agent has high avidity for the drug can be quantified and verified experimentally. For example, the MTT-prodrug EY005-stearyl was admixed with known quantities of selected individual complexation agents. The EY005-stearyl-complexation agent mixture was then added to an appropriate dispersal medium (in this case, methyl laurate), and centrifuged to “pull down” or separate EY005-stearyl bound to complexation agent from unbound prodrug present in the dispersal medium. HPLC analysis of pulled down particulates and dispersal medium from EY005-stearyl content determined the fraction of MTT-prodrug that is bound to the complexation agent and calculation of the Kd value, the unbound to bound coefficient, for the MTT-prodrug/complexation agent pair. Using this type of assay, Kd values can be generated to identify the unbound to bound drug ratio for specific MTT-prodrug/complexation agent pairs in a selected dispersal medium (see, e.g., Table 2, below).\nAs described herein, formation of drug-complex particulates in which the complexation agent has high avidity for the drug can be quantified and verified experimentally. For example, the MTT-prodrug EY005-stearyl was admixed with known quantities of selected individual complexation agents. […] HPLC analysis of pulled down particulates and dispersal medium from EY005-stearyl content determined the fraction of MTT-prodrug that is bound to the complexation agent (binding capacity) and calculation of the Kd value, the unbound to bound coefficient, for the MTT-prodrug/complexation agent pair. […]\nTable 2 illustrates an example of a EY005-stearyl prodrug solubilized in methyl laurate in which various complexation agents were added, mixed, and incubated for 1 hour. The quantity of EY005-stearyl prodrug complexed with each complexation agent was determined by HPLC. Kd values were calculated as [unbound]/[bound] fraction prodrug under each condition. Binding capacity was calculated as the μg EY005-stearyl complexed per mg complexation agent."}, "[4]": {"assay": "Accelerated in vitro release assay, methyl laurate dispersal medium", "format": "physicochemical", "description": "In all cases, all EY005 was rapidly released, in some cases within hours, and in all cases by day 3."}, "[5]": {"system": "retinal pigment epithelium (RPE) cells", "assay": "HQ-induced mitochondrial dysfunction in RPE cells (flavoprotein autofluorescence)", "format": "cell-based", "settings": "HQ-exposed RPE cells, versus elamipretide or native EY005", "experimental": "as §1, §2"}, "[6]": {"assay": "Release assay of two formulations of EY005 prodrugs in the extended release system", "format": "physicochemical", "description": "FIG. 36 illustrates data from a release assay of two representative formulations of EY005 prodrugs in the extended-release drug delivery system, with different durations of release.\nFor example, FIG. 36 illustrates release kinetics for examples of two distinct formulations of EY005 prodrugs in the complexation-based XRDDS, each with different conjugation moieties, as described herein: EY005-octadecyl (formulation 1) and EY005-8-mer peptide (formulation 2)."}, "Albumin": {"biological_target": "Albumin (Homo sapiens, UniProt P02768)", "sequence (P02768 25-609, species assumed)": "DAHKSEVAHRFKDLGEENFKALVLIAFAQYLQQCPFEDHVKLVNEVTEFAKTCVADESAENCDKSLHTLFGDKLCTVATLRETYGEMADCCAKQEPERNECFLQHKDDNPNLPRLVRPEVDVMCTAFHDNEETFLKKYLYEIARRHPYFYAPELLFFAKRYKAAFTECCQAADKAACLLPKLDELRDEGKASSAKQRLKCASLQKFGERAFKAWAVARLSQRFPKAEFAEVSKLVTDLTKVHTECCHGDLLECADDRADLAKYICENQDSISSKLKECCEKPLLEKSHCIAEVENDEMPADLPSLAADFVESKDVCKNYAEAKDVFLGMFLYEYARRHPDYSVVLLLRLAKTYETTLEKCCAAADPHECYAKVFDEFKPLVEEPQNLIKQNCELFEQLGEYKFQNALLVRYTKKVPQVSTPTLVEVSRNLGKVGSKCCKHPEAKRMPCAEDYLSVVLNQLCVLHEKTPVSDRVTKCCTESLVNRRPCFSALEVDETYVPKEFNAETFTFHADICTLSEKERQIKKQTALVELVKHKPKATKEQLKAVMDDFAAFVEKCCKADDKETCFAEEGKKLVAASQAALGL", "assay": "Complexation of EY005-stearyl with complexation agent in methyl laurate, HPLC of pulled-down particulates and medium", "format": "binding", "settings": "1 hour", "experimental": "As described herein, formation of drug-complex particulates in which the complexation agent has high avidity for the drug can be quantified and verified experimentally. For example, the MTT-prodrug EY005-stearyl was admixed with known quantities of selected individual complexation agents. The EY005-stearyl-complexation agent mixture was then added to an appropriate dispersal medium (in this case, methyl laurate), and centrifuged to “pull down” or separate EY005-stearyl bound to complexation agent from unbound prodrug present in the dispersal medium. HPLC analysis of pulled down particulates and dispersal medium from EY005-stearyl content determined the fraction of MTT-prodrug that is bound to the complexation agent and calculation of the Kd value, the unbound to bound coefficient, for the MTT-prodrug/complexation agent pair. […]\nAs described herein, formation of drug-complex particulates in which the complexation agent has high avidity for the drug can be quantified and verified experimentally. For example, the MTT-prodrug EY005-stearyl was admixed with known quantities of selected individual complexation agents. […]\nTable 2 illustrates an example of a EY005-stearyl prodrug solubilized in methyl laurate in which various complexation agents were added, mixed, and incubated for 1 hour. The quantity of EY005-stearyl prodrug complexed with each complexation agent was determined by HPLC. […]"}, "patients with dry AMD [7]": {"system": "patients with dry AMD", "assay": "ReCLAIM clinical trial in patients with dry AMD", "format": "in vivo, human", "settings": "subcutaneous daily (40 mg)", "experimental": "FIG. 3 illustrates summary results of the ReCLAIM study, a phase 1/2 clinical trial of systemically administered (40 mg subcutaneous daily) elamipretide in two cohorts of patients with dry AMD: 1) noncentral geographic atrophy (GA) and 2) high-risk drusen."}, "[8]": {"settings": "human, SQ; cited from earlier work"}, "[9]": {"system": "sub-RPE deposits and visual function", "assay": "APOE4 + high fat diet (HFD) mouse model of dry AMD", "format": "in vivo", "settings": "3 mg/kg subcutaneous", "experimental": "For example, FIG. 2A illustrates the reversal of pre-existing RPE mitochondrial dysfunction and sub-RPE deposits in an ApoE4 mouse model by high-dose elamipretide administered systemically by subcutaneous (SQ) administration (3 mg/kg […]). Aged ApoE4 mice fed a high-fat diet (HFD) develop sub-RPE deposits that reflect the pathobiology of subRPE drusen in patients with dry AMD. ApoE4 mice were treated with elamipretide (n=5; 3 mg/kg SQ daily) or vehicle (n=5) for 4 weeks, continuing HFD from prior 3 mos. […] These untreated mice had thick, severe deposits."}, "patients with dry AMD [10]": {"system": "patients with dry AMD", "settings": "subcutaneous, once daily; limited by local injection site reactions; cited from earlier work"}, "[11]": {"system": "retinal pigment epithelium (RPE) cells", "settings": "preclinical in vitro models of dry AMD; cited from earlier work"}, "[12]": {"assay": "Ocular tissue levels of elamipretide in rabbits after subcutaneous or intravitreal administration", "format": "in vivo, rabbit", "experimental": "For example, maximal systemic dosing of elamipretide is 40 mg daily delivered by subcutaneous route of administration, or approximately […]. […] Meanwhile, peak retina levels following intravitreal injection of 15 μg elamipretide is ˜15 μM. Thus, retinal bioavailability of mitochondrial-targeted peptides following systemic administration of a maximally tolerated dose is suboptimal as compared to intravitreal administration. […] The drug clears from the eye in just a few days, and once a week intravitreal injection in humans is not practical or feasible for treatment of disease in clinical practice. Thus, an extended release drug delivery system is essential to achieve sustained, high levels of drug within the vitreous, retina, and RPE.\nSystemic delivery of mitochondrial targeted tetrapeptides by SQ injection have suboptimal efficacy in human patients due to insufficient retinal bioavailability. Sufficient levels of the mitochondrial-targeted tetrapeptides cannot be achieved at the target tissue site (i.e., retina). For example, in humans, maximal dosing is 40 mg SQ (˜0.3-0.9 mg/kg), a dose that is limited by SQ injection site toxicity (FIG. 3). In mice, effective dosing required 3 mg/kg, which is 3-10 fold greater than the mass-adjusted dose in humans. Peak plasma levels are also limited by the drug's rapid blood clearance, and the blood-eye barrier may also impede retinal penetration. […] Thus, higher retinal and choroidal drug levels with continuous drug exposure are desirable."}},
  "note": "Entries after “also recorded” stand apart in the source; their conditions may differ. Non-standard residues stand in square brackets, D forms with d. Residues, ends and D or L forms follow the SMILES beside them. *: point of attachment. Dmt = Cc1cc(O)cc(C)c1C[C@H](N)C(=O)O; X1 = CCCCCCCCCCCCCCCCCCO*",
  "data": [
    {"smiles": "CCCCCCCCCCCCCCCCCCOC(=O)[C@H](Cc1ccccc1)NC(=O)[C@H](CCCCN)NC(=O)[C@H](Cc1c(C)cc(O)cc1C)NC(=O)[C@H](N)CCCNC(=N)N", "note": "[EY005-stearyl, H-d-Arg-DMT-Lys-Phe(-O)-octadecyl] (H-[dR][Dmt]KF-X1)", "values": [
      {"measurement": "cleavage of the prodrug ester bond, releasing EY005", "setting": "carboxyesterase", "value": "rapid cleavage of the prodrug ester bond"},
      {"measurement": "Reversal of actin cytoskeleton disorganization", "setting": "[1]", "value": "normalized actin cytoskeleton dysfunction"},
      {"measurement": "Hydrophobicity", "setting": "[2]", "value": "hydrophobic"},
      {"measurement": "μg EY005-stearyl complexed per mg complexation agent", "setting": "[3]; Cyclodextrin gamma", "value": 2.3, "unit": "μg per mg"},
      {"measurement": "μg EY005-stearyl complexed per mg complexation agent", "setting": "[3]; Lecithin", "value": 9.5, "unit": "μg per mg"},
      {"measurement": "μg EY005-stearyl complexed per mg complexation agent", "setting": "[3]; Silica microbeads", "value": 0.2, "unit": "μg per mg"},
      {"measurement": "Release rate of EY005", "setting": "[4]; magnesium stearate and albumin together", "value": "intermediate between that of formulations using either complexation agent alone"},
      {"measurement": "Release of EY005 into media", "setting": "[4]; no complexation agent", "value": "rapid release"},
      {"measurement": "Release of EY005 into media", "setting": "[4]; silica microbeads", "value": "rapid release"},
      {"measurement": "Potency for reversal of mitochondrial dysfunction relative to comparator", "setting": "[5]", "value": "efficacy equivalent to treatment with EY005 native peptide"},
      {"measurement": "Release kinetics profile", "setting": "[6]; FIG. 36", "value": "longer initial early burst"},
      {"measurement": "Durability of release", "setting": "[6]; two-phase kinetics", "value": 120, "unit": "days"},
      {"measurement": "μg EY005-stearyl complexed per mg complexation agent", "setting": "Albumin", "value": 4.5, "unit": "μg per mg"}
    ]},
    {"smiles": "Cc1cc(O)cc(C)c1C[C@H](NC(=O)[C@H](N)CCCNC(=N)N)C(=O)N[C@@H](CCCCN)C(=O)N[C@@H](Cc1ccccc1)C(N)=O", "note": "[elamipretide, H-d-Arg-Dmt-Lys-Phe-NH2] (H-[dR][Dmt]KF-NH2)", "values": [
      {"measurement": "Aqueous solubility", "setting": "[2]; native form", "value": "high aqueous solubility"},
      {"measurement": "Low-luminance visual acuity / visual function", "setting": "patients with dry AMD [7]", "value": "general mean trend toward improvement in multiple metrics of visual function"},
      {"measurement": "Dose-limiting toxicity", "setting": "[8]", "value": "local injection site reactions"},
      {"measurement": "visual function (ERG B-wave amplitudes)", "setting": "[9]", "value": "increased B-wave amplitudes; also recorded: partially improved visual function"},
      {"measurement": "maximally tolerated dose in humans", "setting": "patients with dry AMD [10]", "value": 40, "unit": "mg"},
      {"measurement": "Reversal of mitochondrial dysfunction in RPE cell culture", "setting": "[11]", "value": "potent for reversal of mitochondrial dysfunction"},
      {"measurement": "peak retina levels following intravitreal injection", "setting": "[12]; intravitreal injection of 15 μg", "value": "~15", "unit": "µM"},
      {"measurement": "choroid levels after 4 hours", "setting": "[12]; rabbit, subcutaneous 1 mg/kg", "value": "undetectable"},
      {"measurement": "drug in the retina after subcutaneous administration", "setting": "[12]; rabbit, subcutaneous 1 mg/kg", "value": "no drug is detected in the retina"},
      {"measurement": "peak choroid levels at 1 hour", "setting": "[12]; rabbit, subcutaneous 1 mg/kg", "value": "~50", "unit": "nM"}
    ]}
  ]
}
